From BindingDB's records for patent US12384798 (Nanjing Ruijie Pharma Co., 2025)

Columns and labels:
Acetyl-CoA carboxylase 2 = Acetyl-CoA carboxylase 2 (Homo sapiens, UniProt O00763); assay: In Vitro Assay of Acetyl-CoA Carboxylase (ACC) Inhibition
Method: (§1) An exemplary procedure for the in vitro ACC inhibition assay, which can be used to determine the inhibitory action of the compounds of the invention toward either ACC1 or ACC2, is as follows. The ADP-Glo™ kinase assay kit from Promega was used. The ADP-Glo™ kinase assay is a luminescent ADP detection assay to measure enzymatic activity by quantifying the amount of ADP produced during an enzyme reaction. The assay was performed in two steps; first, after the enzyme reaction, an equal volume of ADP-Glo™ reagent was added to terminate the reaction and deplete the remaining ATP. Then, the kinase detection reagent was added to simultaneously convert ADP to ATP and allow the newly synthesized ATP to be measured using a luciferase/luciferin reaction. Luminescence can be correlated to ADP concentrations by using an ATP-to-ADP conversion curve. The detailed procedure was as follows. 4.5 μL of a working solution was added to a 384-well plate. […] A final ACC reaction solution consisted of: 0.5 nM ACC, 10 μM ATP, 5 μM acetyl-CoA, and 15 mM NaHCO3; and the final concentrations of the compound were measured as follows: 1 μM, 0.333 μM, 0.111 μM, 0.037 μM, 0.0123 μM, 0.00411 μM, 0.00137 μM, 0.000457 μM, 0.000152 μM, and 0.000051 μM. […] The plates were incubated at room temperature for 40 minutes, then read on a Perkin Elmer EnVision 2104 plate reader for luminescence in relative light unit (RLU).

Acetyl-CoA carboxylase 1 = Acetyl-CoA carboxylase 1 (Homo sapiens, UniProt Q13085); assay: as above
Method: as §1

Acetyl-CoA carboxylase 2, sequence (O00763 whole entry): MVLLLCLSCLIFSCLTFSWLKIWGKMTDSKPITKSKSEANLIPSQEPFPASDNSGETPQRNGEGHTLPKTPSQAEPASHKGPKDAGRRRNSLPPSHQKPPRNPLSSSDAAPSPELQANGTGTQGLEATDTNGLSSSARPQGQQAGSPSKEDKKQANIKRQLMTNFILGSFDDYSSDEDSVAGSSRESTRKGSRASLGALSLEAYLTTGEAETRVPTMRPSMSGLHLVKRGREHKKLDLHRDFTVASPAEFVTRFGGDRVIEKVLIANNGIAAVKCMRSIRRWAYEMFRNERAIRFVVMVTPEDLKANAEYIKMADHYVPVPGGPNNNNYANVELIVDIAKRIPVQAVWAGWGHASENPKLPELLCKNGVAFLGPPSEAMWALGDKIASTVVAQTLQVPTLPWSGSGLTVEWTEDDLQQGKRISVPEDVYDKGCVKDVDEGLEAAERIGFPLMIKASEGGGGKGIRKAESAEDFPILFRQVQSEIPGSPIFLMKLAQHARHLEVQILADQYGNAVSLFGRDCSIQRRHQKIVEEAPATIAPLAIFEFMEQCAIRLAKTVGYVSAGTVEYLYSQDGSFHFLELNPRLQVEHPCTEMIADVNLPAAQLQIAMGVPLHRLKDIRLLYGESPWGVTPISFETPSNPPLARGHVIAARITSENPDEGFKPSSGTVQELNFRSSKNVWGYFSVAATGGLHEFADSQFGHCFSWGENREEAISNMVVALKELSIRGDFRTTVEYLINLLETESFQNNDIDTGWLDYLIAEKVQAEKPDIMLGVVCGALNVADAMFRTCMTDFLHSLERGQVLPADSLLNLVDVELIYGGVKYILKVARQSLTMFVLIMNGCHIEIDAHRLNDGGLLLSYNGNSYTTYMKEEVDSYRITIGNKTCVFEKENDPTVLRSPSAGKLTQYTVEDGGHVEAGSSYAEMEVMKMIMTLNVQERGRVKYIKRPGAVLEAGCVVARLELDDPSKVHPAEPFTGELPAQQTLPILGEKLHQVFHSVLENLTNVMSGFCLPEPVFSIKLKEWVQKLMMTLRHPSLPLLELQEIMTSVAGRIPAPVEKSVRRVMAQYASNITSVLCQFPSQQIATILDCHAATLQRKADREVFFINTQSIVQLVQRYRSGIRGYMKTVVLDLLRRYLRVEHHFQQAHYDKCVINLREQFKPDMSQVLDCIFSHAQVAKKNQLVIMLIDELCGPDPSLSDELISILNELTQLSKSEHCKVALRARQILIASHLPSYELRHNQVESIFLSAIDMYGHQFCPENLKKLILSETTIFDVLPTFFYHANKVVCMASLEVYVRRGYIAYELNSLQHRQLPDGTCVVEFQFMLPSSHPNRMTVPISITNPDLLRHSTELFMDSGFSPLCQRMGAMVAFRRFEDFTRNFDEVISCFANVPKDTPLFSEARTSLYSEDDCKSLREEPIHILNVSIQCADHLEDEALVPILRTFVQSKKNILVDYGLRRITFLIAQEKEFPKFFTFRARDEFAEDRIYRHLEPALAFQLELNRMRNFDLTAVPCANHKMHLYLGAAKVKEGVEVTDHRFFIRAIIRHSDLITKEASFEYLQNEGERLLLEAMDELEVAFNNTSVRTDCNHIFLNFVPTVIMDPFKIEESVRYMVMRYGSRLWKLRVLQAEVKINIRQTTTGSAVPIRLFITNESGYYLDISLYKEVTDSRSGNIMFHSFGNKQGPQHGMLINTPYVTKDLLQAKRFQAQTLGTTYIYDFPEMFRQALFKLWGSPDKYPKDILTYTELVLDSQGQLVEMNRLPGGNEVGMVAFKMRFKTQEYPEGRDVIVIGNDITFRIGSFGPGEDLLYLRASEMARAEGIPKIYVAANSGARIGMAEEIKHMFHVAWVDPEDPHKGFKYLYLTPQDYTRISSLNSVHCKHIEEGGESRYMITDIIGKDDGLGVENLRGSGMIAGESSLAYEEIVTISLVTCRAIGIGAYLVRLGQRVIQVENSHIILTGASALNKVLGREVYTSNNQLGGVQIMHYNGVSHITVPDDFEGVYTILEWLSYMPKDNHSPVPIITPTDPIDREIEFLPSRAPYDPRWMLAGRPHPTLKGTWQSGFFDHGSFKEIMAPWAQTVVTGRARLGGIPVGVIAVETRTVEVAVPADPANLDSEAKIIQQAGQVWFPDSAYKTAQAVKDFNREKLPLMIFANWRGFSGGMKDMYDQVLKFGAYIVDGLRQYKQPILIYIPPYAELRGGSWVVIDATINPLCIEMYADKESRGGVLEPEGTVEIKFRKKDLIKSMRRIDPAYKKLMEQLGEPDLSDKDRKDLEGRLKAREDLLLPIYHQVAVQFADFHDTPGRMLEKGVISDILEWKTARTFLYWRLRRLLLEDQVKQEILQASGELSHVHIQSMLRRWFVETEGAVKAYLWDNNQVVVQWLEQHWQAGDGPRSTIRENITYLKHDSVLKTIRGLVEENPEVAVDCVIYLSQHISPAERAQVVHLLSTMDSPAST

- IC50 (Acetyl-CoA carboxylase 2): 10 nM
- IC50 (Acetyl-CoA carboxylase 1): 0.487 nM
Structure (SMILES): COc1ccccc1[C@H](Cn1c(=O)n(CC2CC(C(=O)O)C2)c(=O)c2c(C)c(-c3ncco3)sc21)OC1CCOCC1 (some centres not stated) [US12384798, Compound c-1]
